Reference: patent publication US7919475B2, “Compositions and methods for improving heart function” (The Regents of The University of California, priority 2004, dated 2011)

System: cellular protein O-GlcNAcylation in STZ-induced diabetic hearts
Assay: Cellular protein O-GlcNAcylation in diabetic mouse hearts by Western blot
Assay type: in vivo
Conditions: STZ-induced diabetic mice, insulin 50 units/g per day subcutaneously for 2 weeks
Description: To rule out any potentially toxic effects of STZ on the heart, several STZ-injected mice were intensively treated with Ultralente human insulin (Eli Lilly and Company, IN) with 50 units/g per day subcutaneously. The insulin treatment commenced on the third day after STZ injection and lasted for 2 weeks. The cellular O-GlcNAcylation in these hearts was compared with that of the non-insulin treated diabetic hearts. In addition, several 20 weeks old male polygenic diabetic NONcNZO10/LtJ mice (The Jackson Laboratory) (see, e.g., Reifsnyder (2002) Diabetes 51:825-832; Leiter (2004) Diabetes 53 Suppl 1:S4-11) were used as a type II diabetic model to investigate the excess O-GlcNAcyaltion level in the diabetic heart independent of STZ administration. These mice developed hyperglycemia at 12-16 weeks. At the sacrifice time, blood glucose levels were above 33.3 mmol/L. Animal procedures were performed in accordance with the guidelines established by the Committee on Animal Research at the University of California, San Diego. […]
Twenty μg of protein was mixed with Laemmli sample buffer at room temperature for 10 min (samples for anti-O-GlcNAc antibody detection was heated at 70° C. for 10 min) and then loaded onto 4-10% gradient Tris/glycine gels. […] Films were scanned and analyzed by IMAGE-J™ software (NIH).

“insulin: Ultralente human insulin (Eli Lilly and Company)” was tested, and the “excess O-GlcNAcylation of cellular protein in diabetic hearts” value was “prevented”.
